These results are taken from patent USRE43879E1, “Use of the dextrogyral enantiomer of milnacipran for the preparation of a drug” (priority 2003, dated 2012).

Broadly, the IC50 is the concentration that gives 50% inhibition. Usually AUC(0-inf) stands for the area under the concentration-time curve extrapolated to infinity. As a reminder, the Cmax is the highest concentration seen after dosing. What is called Tmax is the time from dosing to the highest level.

Read-outs that look alike come from different tables or passages of the source.

For series [1], the target named is T1, 3H-norepinephrine uptake (Rattus norvegicus, UniProt Q63380). The note with it: read-out: IC50 3H-Norepinephrine uptake; rat hypothalamus P2, 3H-NE 50 nM, 10 min, 37° C.
Experimental: (§1) Norepinephrine Uptake by a Homogenate (P2) of Rat Hypothalamus.
(§2) Male Sprague-Dawley rats, from 200 to 300 g, were stunned and decapitated, and the hypothalami were rapidly removed. Two hypothalami are homogenised in 4 ml of sucrose 0.32 M on a Potter S by 16 complete passes back and forth at 800 rpm, then centrifuged for 10 min at 1,000 g to eliminate cell debris. The supernate is centrifuged for 20 min at 10,000 g and the P2 thus obtained is recovered in 4 ml of sucrose 0.32 M, and homogenised on a Dounce.
(§3) ^3H-(1)-NE: 13 Ci/mmol (Amersham) is used.
(§4) Uptake takes place in a phosphate buffer (containing 8 g of NaCl, 1.21 g of K2HPO4 and 0.34 g of KH2PO4 per liter) pre-oxygenated 30 min before use with a mixture of O2/CO2 (95%/5%).
(§5) In 5-ml plastic tubes placed in a water bath at 37° C., the following are introduced: • 100 μl of buffer or inhibitor, • 700 μl of buffer (containing 25 μM pargyline), • 100 μl of P2.
(§6) After temperature balance, the reaction begins by the addition of 100 μl of ^3H-NE, 50 nM final concentration.
(§7) Exactly 10 min later, the reaction is stopped by adding 2.5 ml of chilled buffer and filtering through GF/F filters. The tube is then rinsed once and the filter once with 2.5 ml of chilled buffer. The filter is then introduced into a Beckman mini-vial and, after adding 3 ml of Instagel (Packard) liquid scintillator, radioactivity is measured with a Tricarb Packard scintillation counter.
(§8) Non-specific uptake (NS) is measured as the presence of DMI 10^−5 M.
(§9) The percentage of inhibition is calculated using the formula:
(§10) The IC50 is determined graphically on the mean curve of percentage of inhibition (4 assays) in relation to the log of the concentration of inhibitor.
In a further series the target is T2, 3H-paroxetine binding (Rattus norvegicus, UniProt P31652).
T2 construct: the hypothalamus was removed, weighed and homogenised on a Dounce; from tissue
In words: Paroxetine binding, rat hypothalamus membranes. Here is the method: 2.1.3. Paroxetine Binding
Male Sprague-Dawley rats (Janvier) weighing 180-200 g were used. The hypothalami of several rats were collected and homogenised in 5 ml of chilled buffer (50 mM Tris-HCL, 120 mM NaCl, 5 mM KCl, pH 7.5) on a Dounce, and the homogenate was centrifuged at 30 000 g (27 000 rpm-Beckman. L5-50E, T40 rotor) for 10 min. The residue obtained was recovered in 5 ml of buffer and re-centrifuged under the same conditions. The new residue was recovered in the same buffer and finally re-homogenised on a Dounce at a tissue concentration of 10 mg/ml. The membrane suspension (100 μl) was incubated with 3H-paroxetine (NEN, France, 28.6 Ci/mmol) at a concentration (final) of 0.1 nM, at 20° C., in a final volume of 1 ml for 2 hr. After 2 hr incubation, the reaction was stopped by vacuum filtration on Whatman GF/F filters pre-treated in a 0.05% solution of polyethylenimine 30 min beforehand (prediluted with 4 ml of chilled buffer, then the tube was rinsed with 2 times 4 ml). Radioactivity was measured by liquid scintillation spectrometry (Packard, Tricarb 4640) using Emulsifier-Safe (Packard) as the scintillating agent.
Specific ^3H-paroxetine binding was defined as the difference between total binding and that remaining in the presence of 10 μM of fluoxetine.
The IC50 were determined by transposing the percentages of inhibition onto a graph in relation to the log of the concentration of the product (6 concentrations in duplicate).

The next series has as its target T3, 3H-serotonin uptake (Rattus norvegicus, UniProt P31652).
T3 construct: the hypothalamus was removed, weighed and homogenised on a Dounce; from tissue
The series is described as follows: Serotonin uptake, rat hypothalamus P2 fraction (synaptosomes). In kind it is biochemical.

A further series relates to primary rat hepatocytes. In words: Safe-Hit genomic test of predictive toxicology (Toxicity Index) on primary rat hepatocytes. In kind it is cell-based. The note with it: 16 h. The source says: After treatment of the primary rat hepatocytes in culture, the RNA was extracted in order to generate labelled complementary-DNA probes which were then hybridised on a membrane containing 682 alternatively-spliced fragments specific to cell stress. A Toxicity Index was obtained for each of the products by comparing the hybridisation profile of the treated cells with that of the untreated cells.
Safe-Hit allows molecules within a chemical series to be ranked according to a Toxic Index, determined after the following basic steps (systematically performed in duplicate for each product): • treatment of the cells lines with the various products at three different concentrations, deduced from a preliminary cytotoxicology test (MTT-assay): a reference concentration corresponding to 80% cell viability, a concentration 10-fold higher—when possible—and a concentration 10-fold lower, • preparation of total RNA and of the corresponding radio-labelled cDNA probes, • hybridisation of the cDNA probes: the Safe-Hit macroarray contains 682 independent clones, corresponding to alterations in gene splicing induced by overexpression of WTp53 (p53 is the most ubiquitous “mediator” of cell stress, chosen for the development of this methodology), • acquisition and determination of the Toxicity Index. 4.1.2. Cells
The cells used in the study (preliminary MTT-assay of cytotoxicity and the main test) are cryopreserved hepatocytes from Sprague-Dawley rats in primary culture (batches Hep184005 and Hep184006-Biopredic), cultured under standard conditions.
The cells are seeded and cultured for 16 hours with each product, at the three concentrations chosen on the basis of the preliminary MTT-assay; two controls (untreated cells in solvent alone) are added to the series.
The results of the two Safe-Hit analyses are then compared and combined to assess the potential toxicity of the various compounds tested. Two parameters that can be modified by the user are involved in the calculation of the Toxicity Index: • Background Threshold (BT) smoothes out weak signals, close to background noise and not attributable to significant gene expression. […] The value of this parameter is usually 2 or less than 2 in order to obtain relevant results. […]
Toxicity Indices (TI) were determined as described above. […] Two separate analyses were performed using two levels of differentiation (Induction Factor-IF) in relation to the untreated controls: • a factor of at least 1.7 in relation to the untreated controls. This factor of 1.7 times represents the weakest value that allows an index not to be obtained in relation to the two untreated controls. • a factor of at least 2 in relation to the untreated controls. This factor of 2 times allows the most robust signals to be taken into account. 4.3.1. Induction Factor of 1.7 in Relation to Untreated Control (Table 7)

Series [2] addresses T1, 3H-norepinephrine uptake. The series is described as follows: biochemical.
Experimental: as §1, §2, §3, §4, §5, §6, §7, §8, §9, §10
Series [3] in a line: Pharmacokinetic study in man (12 healthy subjects), racemate or one enantiomer alone. In kind it is in vivo. The note with it: human, plasma; for half-life: read-out: T½ (converted).
Experimental: A pharmacokinetic study in man involving 12 healthy subjects was performed by administering the racemate or one of the two enantiomers alone.
The conditions of series [4]: in vivo. The source says:
In animals, the pharmacokinetics of each enantiomer were studied following administration of the racemate or of one single enantiomer.

[5] abbreviates: enantiomer administered alone (25 mg).
Where [6] appears, read: enantiomer assayed after F2207 (50 mg).

T3 sequence (P31652 whole entry): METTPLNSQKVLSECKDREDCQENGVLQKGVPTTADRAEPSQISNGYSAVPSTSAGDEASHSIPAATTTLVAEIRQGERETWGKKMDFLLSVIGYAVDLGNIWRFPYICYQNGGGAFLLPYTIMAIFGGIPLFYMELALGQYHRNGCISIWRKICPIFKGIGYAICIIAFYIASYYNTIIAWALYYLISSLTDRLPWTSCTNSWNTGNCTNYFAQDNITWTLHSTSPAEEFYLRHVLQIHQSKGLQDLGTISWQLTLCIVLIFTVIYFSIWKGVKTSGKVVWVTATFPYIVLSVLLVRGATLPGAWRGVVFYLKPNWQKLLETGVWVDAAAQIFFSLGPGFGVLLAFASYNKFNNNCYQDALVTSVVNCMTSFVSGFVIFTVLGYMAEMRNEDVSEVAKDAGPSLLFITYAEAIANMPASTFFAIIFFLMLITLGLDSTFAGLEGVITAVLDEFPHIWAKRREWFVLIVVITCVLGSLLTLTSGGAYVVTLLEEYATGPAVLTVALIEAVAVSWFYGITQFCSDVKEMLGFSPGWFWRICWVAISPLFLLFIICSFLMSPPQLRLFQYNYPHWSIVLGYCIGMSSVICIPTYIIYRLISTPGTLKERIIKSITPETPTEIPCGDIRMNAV
T2 sequence (P31652 whole entry): as above
T1 sequence (Q63380 1-617): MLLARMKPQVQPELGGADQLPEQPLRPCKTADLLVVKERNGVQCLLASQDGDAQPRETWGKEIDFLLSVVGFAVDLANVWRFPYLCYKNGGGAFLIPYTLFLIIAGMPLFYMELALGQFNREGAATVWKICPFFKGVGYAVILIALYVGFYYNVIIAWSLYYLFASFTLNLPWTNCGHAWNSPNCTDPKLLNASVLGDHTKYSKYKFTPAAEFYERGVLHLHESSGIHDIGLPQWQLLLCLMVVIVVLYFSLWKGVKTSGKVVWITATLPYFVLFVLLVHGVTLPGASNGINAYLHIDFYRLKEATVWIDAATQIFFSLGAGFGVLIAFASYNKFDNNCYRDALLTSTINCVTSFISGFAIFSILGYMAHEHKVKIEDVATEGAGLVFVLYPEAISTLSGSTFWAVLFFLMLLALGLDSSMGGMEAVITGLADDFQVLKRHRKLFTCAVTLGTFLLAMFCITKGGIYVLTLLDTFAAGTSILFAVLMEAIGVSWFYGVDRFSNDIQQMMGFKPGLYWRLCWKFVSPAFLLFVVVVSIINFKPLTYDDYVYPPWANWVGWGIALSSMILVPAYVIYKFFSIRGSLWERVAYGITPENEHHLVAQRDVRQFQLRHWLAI
Experimental for 3H-serotonin uptake: After homogenisation of brain tissue in a sucrose solution, the presynaptic terminals break away from the axon and close to form synaptosomes obtained by subcellular fractionation.
Male Sprague-Dawley (Janvier) rats weighing 180-200 g were used.
This homogenate was centrifuged for 10 min at 1,000 g (2,400 rpm-Hettich, Rotenta). […] The residue (called the P2 fraction) was recovered in sucrose at a concentration of 50 mg/ml.
Exactly 5 min after the start of incubation, the reaction was stopped by vacuum filtration on Whatman GF/F filters (predilution with 2.5 ml of chilled buffer then rinsing with 3 times 2.5 ml).
The IC50 were determined by transposing the percentages of inhibition onto a graph in relation to the log of the product concentration (6 concentrations in duplicate).

As to `CCN(CC)C(=O)C1(c2ccccc2)CC1CN` (racemic) [F2207, Z(±)-2-(aminomethyl)-N,N-diethyl-1-phenyl cyclopropane carboxamide], the IC50 turned out to be 30 nM on 3H-norepinephrine uptake [1], 130 nM at 3H-paroxetine binding and 150 nM against 3H-serotonin uptake.

As to `CCN(CC)C(=O)[C@]1(c2ccccc2)C[C@@H]1CN` [F2696, Z-(1R, 2S)-2-(aminomethyl)-N,N-diethyl-1-phenyl cyclopropane carboxamide], in the series on primary rat hepatocytes (100 μM), the “Clone G09 (H. sapiens mitochondrion, cytochrome b), regulation factor vs untreated control” value is 2.09; the “Clone I01 (H. sapiens mitochondrion, cytochrome c oxidase subunit 1), regulation factor vs untreated control” value is recorded as 2.05; the “Clone L01 (H. sapiens divalent cation tolerant protein CUTA mRNA), regulation factor vs untreated control” value is on record as 2.05; the “Clone M07 (H. sapiens mitochondrion, cytochrome c oxidase subunit 1), regulation factor vs untreated control” value is 2.25. In the series on primary rat hepatocytes (100 μM), the “Clone M12 (H. sapiens mRNA; cDNA DKFZp564C1563), regulation factor vs untreated control” value is on record as 0.21 and the “Clone W17 (H. sapiens mitochondrion, hypoxia inducible gene-14), regulation factor vs untreated control” value was 2.96. In the series on primary rat hepatocytes (Sprague-Dawley, rat, 1 μM), the “Clone T08 (H. sapiens mRNA for KIAA1185 protein), regulation factor vs untreated control” value (shortened to “Clone T08 … vs untreated control”) is given as 0.50; the “Clone U04 (H. sapiens translation initiation factor elF-2alpha mRNA), regulation factor vs untreated control” value (from here on “Clone U04 … vs untreated control”) is 0.57; the “Number of down-regulated clones (Down)” value is given as 2. For the same compound, in the series with primary rat hepatocytes (Sprague-Dawley, rat, 10 μM), the “Clone AC13 (H. sapiens 7S RNA L gene), regulation factor vs untreated control” value is 0.22; the “Clone T08 … vs untreated control” value is recorded as 0.22; the “Clone U04 … vs untreated control” value is given as 0.26; the “Clone X02 (unk), regulation factor vs untreated control” value was 0.29. Also, the “Number of down-regulated clones (Down)” value in the series with primary rat hepatocytes (Sprague-Dawley, rat, 10 μM) is on record as 5. In the series on primary rat hepatocytes (Sprague-Dawley, rat, 100 μM), the “Clone A20 (H. sapiens initiation factor elF-5A gene), regulation factor vs untreated control” value is given as 0.56; the “Clone AC13 (H. sapiens 7S RNA L gene), regulation factor vs untreated control” value is recorded as 0.16; the “Clone C01 (H. sapiens mitochondrion, 16S), regulation factor vs untreated control” value is 3.20; the “Clone E11 (H. sapiens chlordecone reductase homolog liver, mRNA), regulation factor vs untreated control” value is on record as 2.12. In the series with primary rat hepatocytes (Sprague-Dawley, rat, 100 μM), the “Clone I18 (H. sapiens 18S rRNA gene), regulation factor vs untreated control” value is 2.38; the “Clone J03 (H. sapiens CLP mRNA), regulation factor vs untreated control” value is 2.12; the “Clone L22 (H. sapiens mRNA for Lon protease-like protein), regulation factor vs untreated control” value is 1.78; the “Clone M23 (Sequence 21 from U.S. Pat. No. 5,851,764), regulation factor vs untreated control” value is on record as 1.95. For the same compound, in the series on primary rat hepatocytes (Sprague-Dawley, rat, 100 μM), the “Clone P05 (H. sapiens PAC clone DJ404K21 from Xq23), regulation factor vs untreated control” value is 1.78; the “Clone Q24 (H. sapiens 28S ribosomal RNA gene), regulation factor vs untreated control” value is listed as 1.77; the “Clone T08 … vs untreated control” value is on record as 0.20; the “Clone U04 … vs untreated control” value is reported as 0.19. In addition, in the series with primary rat hepatocytes (Sprague-Dawley, rat, 100 μM), the “Clone X02 (unk), regulation factor vs untreated control” value is recorded as 0.20; the “Clone X06 (H. sapiens Genomic sequence from 9q34), regulation factor vs untreated control” value was 0.16; the “Clone X23 (unk), regulation factor vs untreated control” value was 1.92; the “Clone Y17 (H. sapiens 28S ribosomal RNA gene), regulation factor vs untreated control” value is 2.65. At 3H-paroxetine binding, this compound came in with an IC50 of 700 nM. This compound gave an IC50 against 3H-norepinephrine uptake [2] of 750 nM. The compound also displayed an IC50 against 3H-serotonin uptake of 600 nM. In series [3] (setting [5]), the AUC(0-inf) was 1.54 µM·h, the peak level (Cmax) was 212 nM, the Tmax is 2.21 h and the half-life is 5.58 h. For the same compound, in series [3] (setting [6]), the AUC(0-inf) came out at 1.56 µM·h, the Cmax was 179 nM, the Tmax came out at 2.87 h and the half-life was 5.75 h. The “Plasma concentrations of the enantiomers compared” value in series [4] (monkey) was “approximately equivalent”. Also, the “Plasma concentrations of the enantiomers compared” value in series [4] (rat) is recorded as “approximately equivalent”.

In the case of `CCN(CC)C(=O)[C@@]1(c2ccccc2)C[C@H]1CN` [F2695, Z-(1S,2R)-2-(aminomethyl)-N,N-diethyl-1-phenyl cyclopropane carboxamide], in the series with primary rat hepatocytes (Sprague-Dawley, rat, 100 μM), the “Clone Q11 (unk), regulation factor vs untreated control” value is listed as 1.81; the “Number of down-regulated clones (Down)” value is on record as 1; the “Number of up-regulated clones (Up)” value is given as 1. For the same compound, the half-maximal inhibitory concentration (IC50) on 3H-paroxetine binding came to 60 nM. Half-maximal inhibition against 3H-norepinephrine uptake [2] (IC50) required 15 nM. The compound further registered an IC50 against 3H-serotonin uptake of 46 nM. Moreover, in series [3] (setting [5]), the AUC(0-inf) worked out at 2.87 µM·h, the concentration peaked (Cmax) at 216 nM, the Tmax is 3.08 h and the half-life is 9.38 h. Also, in series [3] (setting [6]), the AUC(0-inf) is 2.9 µM·h, the Cmax came out at 214 nM, the Tmax is 3.42 h and the half-life is 9.28 h. In addition, the “Plasma concentrations of the enantiomers compared” value in series [4] (monkey) is given as “approximately equivalent”. In addition, the “Plasma concentrations of the enantiomers compared” value in series [4] (rat) is “approximately equivalent”.
